Patent US7375090B2, “Glucopyranosyloxy-pyrazoles, pharmaceutical compositions containing these compounds, the use thereof and processed for the preparation thereof” (Boehringer Ingelheim International GmbH, priority 2003, dated 2008)

Target: T1, human sodium glucose cotransporter 2 (Homo sapiens, UniProt P31639)
T1 construct: expressed in transfected cells; host or cells: CHO-K1 (ATCC No. CCL 61) or HEK293 (ATCC No. CRL-1573), stably transfected with pZeoSV-hSGLT2
T1 sequence (P31639 1-672): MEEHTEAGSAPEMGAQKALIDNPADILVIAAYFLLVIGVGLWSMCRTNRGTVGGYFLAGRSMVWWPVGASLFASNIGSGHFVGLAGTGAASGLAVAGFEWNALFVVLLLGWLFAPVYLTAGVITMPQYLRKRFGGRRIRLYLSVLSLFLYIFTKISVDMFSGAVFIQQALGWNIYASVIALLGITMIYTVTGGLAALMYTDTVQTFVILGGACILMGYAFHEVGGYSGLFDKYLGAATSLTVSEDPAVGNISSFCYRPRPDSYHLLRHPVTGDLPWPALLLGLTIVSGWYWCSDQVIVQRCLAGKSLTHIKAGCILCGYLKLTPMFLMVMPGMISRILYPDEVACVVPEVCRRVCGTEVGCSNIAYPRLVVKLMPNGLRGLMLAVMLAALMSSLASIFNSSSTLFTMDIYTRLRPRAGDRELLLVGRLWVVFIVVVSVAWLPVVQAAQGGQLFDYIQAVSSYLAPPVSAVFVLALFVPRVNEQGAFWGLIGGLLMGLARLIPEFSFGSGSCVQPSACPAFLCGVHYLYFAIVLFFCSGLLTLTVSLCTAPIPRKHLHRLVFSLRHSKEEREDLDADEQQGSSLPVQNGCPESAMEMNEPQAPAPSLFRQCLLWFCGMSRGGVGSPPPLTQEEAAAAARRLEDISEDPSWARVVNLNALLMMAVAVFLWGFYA
Assay: SGLT-2 assay (14C-AMG uptake in CHO-hSGLT2 or HEK-hSGLT2 cells)
Format: cell-based
Details: inhibition of 14C-AMG uptake; CHO-K1 or HEK293 cells stably transfected with hSGLT2; 2 hours' incubation at 37° C.
Experimental: These cell lines transport ^14C-labelled alpha-methyl-glucopyranoside (14C-AMG, Amersham) into the interior of the cell in sodium-dependent manner.
The SGLT-2 assay is carried out as follows:
CHO-hSGLT2 cells are cultivated in Ham's F12 Medium (BioWhittaker) with 10% foetal calf serum and 250 μg/ml zeocin (Invitrogen), and HEK293-hSGLT2 cells are cultivated in DMEM medium with 10% foetal calf serum and 250 μg/ml zeocin (Invitrogen).
The cells are detached from the culture flasks by washing twice with PBS and subsequently treating with trypsin/EDTA. After the addition of cell culture medium the cells are centrifuged, resuspended in culture medium and counted in a Casy cell counter. Then 40,000 cells per well are seeded into a white, 96-well plate coated with poly-D-lysine and incubated overnight at 37° C., 5% CO2. The cells are washed twice with 250 μl of assay buffer (Hanks Balanced Salt Solution, 137 mM NaCl, 5.4 mM KCl, 2.8 mM CaCl2, 1.2 mM MgSO4 and 10 mM HEPES (pH7.4), 50 μg/ml of gentamycin). Two hundred-fifty microliters of assay buffer and 5 μl of test compound are then added to each well and the plate is incubated for a further 15 minutes in the incubator. Five microliters of 10% DMSO are used as the negative control. […] After this incubation the radioactivity of the ^14C-AMG absorbed is measured in a Topcount (Packard) using a ^14C scintillation program.

## CCc1ccc(Cc2c(O[C@@H]3O[C@H](CO)[C@@H](O)[C@H](O)[C@H]3O)nn(C3CCOCC3)c2C)cc1 [compound (4) of Example 3, 1-(tetrahydropyran-4-yl)-3-(β-D-glucopyranosyloxy)-4-(4-ethylbenzyl)-5-methyl-1H-pyrazole]
  EC50: ~5 nM
